How the values were obtained:
[1] = tested on: corneal epithelial cells isolated from the rabbit eye; experiment: Trans-epithelial electrical resistance (TEER) of layered air-lift corneal epithelial cultures under hypertonic fluid; type: cell-based; details: for TEER (as % of isotonic control) at 22 hours: 2 mM solute in hypertonic fluid (400 mOsmols/kg), 22 hours exposure, isotonic control 100%, hypertonic control 23.3; for % TEER relative to the isotonic control, response to concentration: Example 4, different concentrations, TEER measured from 0 to 24 hours, FIG. 6; for osmoprotective benefit (TEER relative to the hypertonic control), in words: Example 1, 2 mM, 400 mOsmols/kg, 22 hours
Text: In this experiment, corneal epithelial cells were isolated from the rabbit eye and grown under conditions so that they differentiate into a layered “air-lift” culture that includes basal, wing, and squamous cells. As they grow and differentiate, these cultures developed tight junctions between cells that provide the basis for a trans-epithelial electrical resistance (TEER) across the cell layers between the apical and basal surfaces. The TEER value is a sensitive measure of cell growth, differentiation and health.
After 5 days in culture during which the layered structure forms, different culture wells were exposed to hypertonic fluid (400 mOsmols/kg) with or without addition of one of 6 candidate compatible solutes at a low concentration (2 mM). The TEER was then measured after 22 hours of exposure. The TEER value was expressed as a percentage of the TEER value obtained from a similar culture under isotonic (300 mOsmol/kg) conditions.
Example 1 is repeated except that different concentrations of each of the candidate materials are used, and the TEER is measured at various times from 0 to 24 hours.
As in Example 1, the TEER variable is represented as % TEER relative to the isotonic control. […]

p38 MAP Kinase = experiment: Beadlyte Cell Signaling Assay, phospho:total p38 MAP Kinase; type: cell-based, human; details: Beadlyte method, FIG. 4
Description: Human corneoscleral tissues, from donors aged 16-59 years were obtained from the Lions Eye Bank of Texas (Houston, Tex.). Corneal epithelial cells were grown from limbal explants. In brief, after carefully removing the central cornea, excess conjunctiva and iris and corneal endothelium, the limbal rim was cut into 12 equal pieces (about 2×2 mm size each). Two of these pieces were placed epithelial side up into each well of 6-well culture plates, and each explant was covered with a drop of fetal bovine serum (FBS) overnight. […]
(§1) The adherent cells were lysed in Beadlyte® Buffer B (included in the Beadlyte® Cell Signaling buffer kit, Upstate Biotechnology, Lake Placid, N.Y.) containing an EDTA-free protease inhibitor cocktail tablet (Roche Applied Science, Indianapolis, Ind.) for 15 minutes. The cell extracts were centrifuged at 12,000×g for 15 minutes at room temperature and the supernatants were stored at −80° C. until they were analyzed by Western blot analysis. The total protein concentrations of the cell extracts were determined using a Micro BCA protein assay kit (Pierce, Rockford, Ill.). […]
(§2) The beads were washed and mixed with biotinylated specific reporter antibodies for phospho-MAPK or total-MAPK, followed by streptavidin-phycoerythrin. The amount of total or phospho-MAPK was then quantified by the Luminex 100™ system (Luminex, Austin, Tex.). […]

[2] = Component compatibility with stabilized chlorine dioxide preservative; type: physicochemical; details: composition including betaine and stabilized chlorine dioxide
Description: A composition including betaine and stabilized chlorine dioxide, as a preservative, was tested for component compatibility. […] Thus, betaine is not useful with is certain preservatives, such as stabilized chlorine dioxide. However, betaine may advantageously be employed as a compatible solute in ophthalmic compositions which use other preservative systems, or which are free of preservatives, for example, in single or unit-dose applications.

ERK MAP Kinase = experiment: Beadlyte Cell Signaling Assay, phospho:total ERK MAP Kinase; type: cell-based, human; details: Beadlyte method, FIG. 5
Description: (§3) Human corneoscleral tissues, from donors aged 16-59 years were obtained from the Lions Eye Bank of Texas (Houston, Tex.). Corneal epithelial cells were grown from limbal explants. In brief, after carefully removing the central cornea, excess conjunctiva and iris and corneal endothelium, the limbal rim was cut into 12 equal pieces (about 2×2 mm size each). Two of these pieces were placed epithelial side up into each well of 6-well culture plates, and each explant was covered with a drop of fetal bovine serum (FBS) overnight. The explants were then cultured in SHEM medium, which was an 1:1 mixture of Dulbecco modified Eagle medium (DMEM) and Ham F-12 medium containing 5 ng/mL EGF, 5 μg/mL insulin, 5 μg/mL transferrin, 5 ng/mL sodium selenite, 0.5 μg/mL hydrocortisone, 30 ng/mL cholera toxin A, 0.5% DMSO, 50 μg/mL gentamicin, 1.25 μg/mL amphotericin B and 5% FBS, at 37° C. under 5% CO2 and 95% humidity. The medium was renewed every 2-3 days. Epithelial phenotype of these cultures was confirmed by characteristic morphology and immuno-fluorescent staining with cytokeratin antibodies (AE-1/AE-3).
(§4) A series of primary sub-confluent corneal epithelial cultures (grown for 12 to 14 days, about 4-5×10^5 cells/well) were washed three times with […] buffered saline (PBS) and switched to an Earle's Balanced Salt Solution (EBSS, 300 mOsmols/kg) for 24 hours before treatment. The corneal epithelial cells were cultured for 1 hour in an equal volume (2.0 mL/well) of EBSS media or 400 mOsmols/kg media by adding 53 mM NaCl or sucrose, with either L-carnitine inner salt, betaine hydrochloride, erythritol, or xylitol (all at a concentration of 2 mM) that were pre-added 60 minutes before adding NaCl or sucrose. Samples without these osmoprotectants were also prepared and tested.
as §1
as §2, with “Tex.). Fifty events per bead were read, and the data output obtained from the Bio-Plex Manager software were exported to Microsoft Excel® for further analysis.” for “Tex.).”

phospho-JNK / total JNK = experiment: Beadlyte Cell Signaling Assay, phosphorylated:total JNK; type: cell-based, human; details: Beadlyte method, FIG. 3
Description: as §3, §4, §1
as §2, with “Tex.). Fifty events per bead were read, and the data output obtained from the Bio-Plex Manager software were exported to Microsoft Excel® for further analysis.” for “Tex.).”

[3] = tested on: phosphorylated c-jun N-terminal kinases (p-JNK1 and p-JNK2); experiment: Western blot analysis of phosphorylated JNK1 and JNK2 in primary corneal epithelial cultures under hyperosmolar media; type: cell-based, human; details: 2 mM; for levels of JNK1 and JNK2 in 300 mOsmols/kg cultures: FIG. 2; for JNK activation (levels of JNK1 and JNK2, Western blot intensity) compared to 400 mOsmols/kg media alone: pre-added 60 minutes, 1 hour, FIGS. 1 and 2
Description: as §3, §4
The adherent cells were lysed in Beadlyte® Buffer B (included in the Beadlyte® Cell Signaling buffer kit, Upstate Biotechnology, Lake Placid, N.Y.) containing an EDTA-free protease inhibitor cocktail tablet (Roche Applied Science, Indianapolis, Ind.) for 15 minutes. The cell extracts were centrifuged at 12,000×g for 15 minutes at room temperature and the supernatants were stored at −80° C. until they were analyzed by Western blot analysis. The total protein concentrations of the cell extracts were determined using a Micro BCA protein assay kit (Pierce, Rockford, Ill.).
The intensity of each of JNK1 and JNK2 was tested for each of these compositions using Western blot analysis with specific antibodies to each phosphorylated species.
The Western blot analysis was conducted as follows. The protein samples (50 μg per lane) were mixed with 6×SDS reducing sample buffer and boiled for 5 minutes before loading. Proteins were separated by SDS polyacrylamide gel electrophoresis (4-15% Tris-HCl, gradient gels from Bio-Rad, Hercules, Calif.), and transferred electronically to polyvinylidine difluoride (PVDF) membranes (Millipore, Bedford, Mass.). The membranes were blocked with 5% non-fat milk in TTBS (50 mM Tris, pH 7.5, 0.9% NaCl, and 0.1% Tween-20) for 1 hour at room temperature (RT), and then incubated 2 hours at RT with a 1:1000 dilution of rabbit antibody against phospho-p38 MAPK (Cell Signaling, Beverly, Mass.), 1:100 dilution of rabbit antibody against phospho-JNK, or 1:500 dilution of monoclonal antibody against phospho-p44/42 ERK (Santa Cruz Biotechnology, Santa Cruz, Calif.).
After three washings with TTBS, the membranes were incubated for 1 hour at RT with horseradish peroxidase-conjugated secondary antibody goat anti-rabbit IgG (1:2000 dilution, Cell Signaling, Beverly, Mass.), or goat anti-mouse IgG (1:5000 dilution, Pierce, Rockford, Ill.). After washing the membranes four times, the signals were detected with an ECL advance chemiluminescence reagent (Amersham, Piscataway, N.J.) and the images were acquired by a Kodak image station 2000R (Eastman Kodak, New Haven, Conn.). […]

| SMILES | TEER (as % of isotonic control) at 22 hours [1] [%] | % TEER relative to the isotonic control, response to concentration [1] | amount of phospho-total p38 relative to the hypertonic control (p38 MAP Kinase) | component compatibility with stabilized chlorine dioxide (Purite7) preservative [2] | amount of ERK relative to the hypertonic control (ERK MAP Kinase) | amount of phospho-total JNK relative to the hypertonic control (phospho-JNK / total JNK) | levels of JNK1 and JNK2 in 300 mOsmols/kg cultures [3] | JNK activation (levels of JNK1 and JNK2, Western blot intensity) compared to 400 mOsmols/kg media alone [3] | osmoprotective benefit (TEER relative to the hypertonic control), in words [1] |
| --- | --- | --- | --- | --- | --- | --- | --- | --- | --- |
| C[N+](C)(C)CC(=O)O [Betaine, betaine (trimethyl glycine)] | 53.3 | dose-related response | exception | not fully compatible | did not | reduced | less robust effect | definite decrease | – |
| C[N+](C)(C)C[C@H](O)CC(=O)[O-] [Carnitine] | 118.9 | dose-related response | – | – | did not | reduced | less robust effect | definite decrease | most benefit |
| OC[C@@H](O)[C@@H](O)CO [Erythritol] | 107.4 | dose-related response | – | – | reduced | reduced | – | no effect | best results among the polyols tested |
| O[C@H]1[C@H](O)[C@@H](O)[C@H](O)[C@@H](O)[C@H]1O [Myo-Inositol] | 74.8 | – | – | – | – | – | – | – | good results |
| NCCS(=O)(=O)O [Taurine] | 39.8 | – | – | – | – | – | – | – | – |
| OC[C@@H](O)[C@H](O)[C@@H](O)CO [Xylitol] | 94.1 | – | – | – | reduced | reduced | – | no effect | good results |
